Experimental data reported in patent US20150135829A1, “Levitation of Materials in Paramagnetic Ionic Liquids” (Presidents and Fellows of Harvard College, priority 2012, published 2015).

How the values were obtained:
Format in all cases: physicochemical
[1] = Density and magnetic susceptibility of paramagnetic ionic liquids from MagLev levitation height of density standard beads; conditions: for ρ (density) / χ (magnetic susceptibility): calculated from levitation height vs density of standard beads (Mirica et al. JACS 2009 method); for Accessible Density Range: range of densities that can be levitated in MagLev
Description: The density of a diamagnetic object was determined, from its levitation height, by suspending the object in a container filled with paramagnetic ionic liquid and placed the container between two NdFeB magnets oriented with like poles facing each other (see FIG. 5). Before using the paramagnetic ionic liquids as liquids for density based measurement using Maglev, the density and magnetic susceptibility of each paramagnetic ionic liquid was first determined (examples shown in FIG. 6). These properties can be calculated from a plot of the levitation height of objects with known density versus their density using previously disclosed methods. See, e.g., Mirica et al. JACS, 2009, 10049. See also, FIGS. 7-9, Table 1.

[2] = Thermal stability by thermal gravimetric analysis (TGA)
Description: The change in weight as a function of temperature was monitored by heating the sample from room temperature to 700° C. at a ramp rate of 10° C./min.
(§1) Except for [BMIM][FeCl4], [GlyC2][FeCl2][BMIM]2[MnCl4], all paramagnetic ionic liquids were synthesized by mixing appropriate equivalents of the halide starting materials in methanol and allowed to stir overnight. The solvent was removed in vacuo affording paramagnetic ionic liquids in nearly quantitative yield. The synthesis of [BMIM][FeCl4], [GlyC2][FeCl4] was carried out by following reported literature procedure (Satoshi Hayashi and Hiro-o Hamaguchi Chemistry Letters 2004, 33 (12) 1590-1591; Masanari Okuno and Hiro-o Hamaguchi Applied Physics Letters 2006, 89, 132506). Specifically, BMIM Cl and FeCl3 were mixed together in a 1:1 molar ratio and stirred under nitrogen atmosphere. After stirring for 10 minutes at room temperature, BMIM FeCl4 was obtained as a brown colored ionic liquid. This procedure was also used for BMIM MnCl4 except that the mixture was gently heated at 60° C. for 5 minutes. The synthesized paramagnetic ionic liquids were characterized using elemental analysis (Robertson Microlit Labs, NJ). The glass transition temperature (Tg), melting point (Tm), and decomposition temperatures (Tdec) of the synthesized paramagnetic ionic liquids were obtained respectively using dynamic scanning calorimetry (DSC), and thermal gravimetric analysis (TGA).
The thermal stability of the paramagnetic ionic liquids was measured using thermal gravimetric analysis (TGA). Most paramagnetic ionic liquids were thermally stable to at least 300° C. (see FIG. 4). The melting points (Tm), glass transition (Tg) and decomposition temperatures (Tdec) of the synthesized paramagnetic ionic liquids is provided below.

[3] = Glass transition temperature by differential scanning calorimetry (DSC); conditions: cooling from 20° C. to −75° C. at 10° C./minute, then heating
Description: as §1, with “The glass transition temperature (Tg), melting point (Tm), and decomposition temperatures (Tdec) of the synthesized paramagnetic ionic liquids were obtained respectively using dynamic scanning calorimetry (DSC), and thermal gravimetric analysis (TGA).” left out
The glass transition temperatures and melting points of the synthesized paramagnetic ionic liquids were determined using differential scanning calorimetry (DSC) (see FIG. 3). […]

Row | Compound | ρ (density) [1] | χ (magnetic susceptibility) [1] | Accessible Density Range [1] | Tdec (decomposition temperature) [2] | Tg (glass transition temperature) [3] | magnetic susceptibility (χ) [1]
1 | COC(=O)[C@H](C)[NH3+].COC(=O)[C@H](C)[NH3+].[Cl][Mn-2]([Cl])([Cl])[Cl] [[AlaC1]2 [MnCl4]] | 1.24 g/mL | 11.80 ×10^−4 | 0.63 to 1.86 g/mL | – | – | –
2 | COC(=O)[C@H](C)[NH3+].COC(=O)[C@H](C)[NH3+].COC(=O)[C@H](C)[NH3+].[Cl][Gd-3]([Cl])([Cl])([Cl])([Cl])[Cl] [[AlaC1]3 [GdCl6]] | 1.31 g/mL | 8.24 ×10^−4 | 0.89 to 1.74 g/mL | – | – | –
3 | COC(=O)[C@H](C)[NH3+].COC(=O)[C@H](C)[NH3+].COC(=O)[C@H](C)[NH3+].[Cl][Ho-3]([Cl])([Cl])([Cl])([Cl])[Cl] [[AlaC1]3 [HoCl6]] | 1.42 g/mL | 9.70 ×10^−4 | 0.92 to 1.93 g/mL | – | – | –
4 | COC(=O)[C@H](C)[NH3+].[Cl][Fe-]([Cl])([Cl])[Cl] [[AlaC1] [FeCl4]] | 1.52 g/mL | 6.62 ×10^−4 | 1.15 to 1.93 g/mL | – | – | –
5 | CCCCCCCC[N+](C)(CCCCCCCC)CCCCCCCC.CCCCCCCC[N+](C)(CCCCCCCC)CCCCCCCC.CCCCCCCC[N+](C)(CCCCCCCC)CCCCCCCC.[Cl][Gd-3]([Cl])([Cl])([Cl])([Cl])[Cl] [[Aliq]3 [GdCl6]] | 0.97 g/mL | 0.55 ×10^−4 | 0.95 to 0.99 g/mL | – | – | –
6 | CCCCCCCC[N+](C)(CCCCCCCC)CCCCCCCC.CCCCCCCC[N+](C)(CCCCCCCC)CCCCCCCC.CCCCCCCC[N+](C)(CCCCCCCC)CCCCCCCC.[Br][Ho-3]([Br])([Br])([Br])([Br])[Br] [[Aliq]3 [HoBr6]] | 1.08 g/mL | 1.37 ×10^−4 | 1.01 to 1.15 g/mL | 250 °C | – | –
7 | CCCCCCCC[N+](C)(CCCCCCCC)CCCCCCCC.CCCCCCCC[N+](C)(CCCCCCCC)CCCCCCCC.CCCCCCCC[N+](C)(CCCCCCCC)CCCCCCCC.[Cl][Ho-3]([Cl])([Cl])([Cl])([Cl])[Cl] [[Aliq]3 [HoCl6]] | 0.95 g/mL | 1.94 ×10^−4 | 0.85 to 1.05 g/mL | – | – | –
8 | CCCCCCCCCCCCCC[P+](CCCCCC)(CCCCCC)CCCCCC.CCCCCCCCCCCCCC[P+](CCCCCC)(CCCCCC)CCCCCC.[Cl][Mn-2]([Cl])([Cl])[Cl] [[PR4]2[MnCl4]] | – | – | – | – | −69 °C | –

Other lines, results leading:

Row | ρ (density) [1] | χ (magnetic susceptibility) [1] | Accessible Density Range [1] | Tdec (decomposition temperature) [2] | Tg (glass transition temperature) [3] | magnetic susceptibility (χ) [1] | Compound
9 | 1.41 g/mL | 9.58 ×10^−4 | 0.91 to 1.91 g/mL | – | – | – | COC(=O)[C@H](C)[NH3+].COC(=O)[C@H](C)[NH3+].COC(=O)[C@H](C)[NH3+].[Cl][Dy-3]([Cl])([Cl])([Cl])([Cl])[Cl] [[AlaC1]3 [DyCl6]]
10 | 0.96 g/mL | 1.85 ×10^−4 | 0.90 to 100 g/mL | – | – | – | CCCCCCCC[N+](C)(CCCCCCCC)CCCCCCCC.CCCCCCCC[N+](C)(CCCCCCCC)CCCCCCCC.[Cl][Mn-2]([Cl])([Cl])[Cl] [[Aliq]2 [MnCl4]]
11 | 1.23 g/mL | 3.49 ×10^−4 | 1.05 to 1.41 g/mL | – | – | – | CCCC[n+]1ccn(C)c1C.CCCC[n+]1ccn(C)c1C.CCCC[n+]1ccn(C)c1C.[Cl][Dy-3]([Cl])([Cl])([Cl])([Cl])[Cl] [[BDMIM]3 [DyCl6]]
12 | 1.24 g/mL | 2.75 ×10^−4 | 1.09 to 1.37 g/mL | 300 °C | −40 °C | – | CCCC[n+]1ccn(C)c1.CCCC[n+]1ccn(C)c1.[Cl][Mn-2]([Cl])([Cl])[Cl] [[BMIM]2 [MnCl4]]
13 | 1.37 g/mL | 12.37 ×10^−4 | 0.72 to 2.01 g/mL | 350 °C | – | 12.4 ·10^−4 | CCCCn1cc[n+](C)c1.CCCCn1cc[n+](C)c1.CCCCn1cc[n+](C)c1.[Cl][Dy-3]([Cl])([Cl])([Cl])([Cl])[Cl] [[BMIM]3 [DyCl6]]
14 | 1.29 g/mL | 5.40 ×10^−4 | 1.30 to 1.35 g/mL | – | – | – | CCCC[n+]1ccn(C)c1.CCCC[n+]1ccn(C)c1.CCCC[n+]1ccn(C)c1.[Cl][Ho-3]([Cl])([Cl])([Cl])([Cl])[Cl] [[BMIM]3 [HoCl6]]
15 | 1.39 g/mL | 8.28 ×10^−4 | 0.96 to 1.83 g/mL | – | – | – | CCCCn1cc[n+](C)c1.[Cl][Fe-]([Cl])([Cl])[Cl] [[BMIM] [FeCl4]]
